The source of these data is US8906909B2 (Curis, Inc., priority 2009, dated 2014).

SMILES strings stand for the structures.

Series [1] concerns HDACs (HeLa cell nuclear extracts). Put plainly: HDAC enzymatic activity, Biomol Color de Lys system. The format is biochemical. In a few lines: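 HeLa nuclear extract as HDAC source with Color de Lys substrate in 50 mM Tris/Cl pH 8.0, 137 mM NaCl, 2.7 mM KCl, 1 mM MgCl2. Serially diluted compounds reacted 1 h at 25 °C, then developer added; fluorescence (Ex 350–380/Em 440–460) fitted sigmoidally for IC50.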

For orientation: IC50 means the concentration needed to halve the response being measured. A higher IC50 goes with lower potency. By melting point is commonly meant the temperature of the solid-liquid transition. Regarding `CC(C)c1ccc(-c2nc(N3CCOCC3)c3sc(CN(C)c4ncc(C(=O)NO)cn4)cc3n2)cc1` [Compound 148, N-hydroxy-2-(((2-(4-isopropylphenyl)-4-morpholinothieno[3,2-d]pyrimidin-6-yl)methyl)(methyl)amino)pyrimidine-5-carboxamide], the melting point was 155 °C (dec.). In series [1], the IC50 is less than 100 nM.

`CN(Cc1cc2nc(-c3ccc(S(C)(=O)=O)cc3)nc(N3CCOCC3)c2s1)c1ncc(C(=O)NO)cn1` [Compound 149, N-hydroxy-2-(methyl((2-(4-(methylsulfonyl)phenyl)-4-morpholinothieno[3,2-d]pyrimidin-6-yl)methyl)amino)pyrimidine-5-carboxamide]: the melting point was in the range of 206 to 208 °C. The same compound displayed an IC50 in series [1] of less than 100 nM.

In the case of `CNc1ccc(-c2nc(N3CCOCC3)c3sc(CN(C)c4ncc(C(=O)NO)cn4)cc3n2)cc1` [Compound 151, N-hydroxy-2-(methyl((2-(4-(methylamino)phenyl)-4-morpholinothieno[3,2-d]pyrimidin-6-yl)methyl)amino)pyrimidine-5-carboxamide], the melting point fell in the range of 218 to 220 °C. Besides, in series [1], the IC50 is less than 100 nM.

As to `CN(C)c1ccc(-c2nc(N3CCOCC3)c3sc(CN(C)c4ncc(C(=O)NO)cn4)cc3n2)cc1` [Compound 152, 2-(((2-(4-(dimethylamino)phenyl)-4-morpholinothieno[3,2-d]pyrimidin-6-yl)methyl)(methyl)amino)-N-hydroxypyrimidine-5-carboxamide], the melting point fell in the range of 208 to 210 °C. The compound also displayed an IC50 in series [1] of less than 100 nM.

Consider `CCNc1ccc(-c2nc(N3CCOCC3)c3sc(CN(C)c4ncc(C(=O)NO)cn4)cc3n2)cc1` [Compound 153, 2-(((2-(4-(ethylamino)phenyl)-4-morpholinothieno[3,2-d]pyrimidin-6-yl)methyl)(methyl)amino)-N-hydroxypyrimidine-5-carboxamide], for which the melting point fell in the range of 185 to 187 °C. In addition, in series [1], the concentration for half-maximal inhibition (IC50) is less than 100 nM.

Regarding `CCN(CC)c1ccc(-c2nc(N3CCOCC3)c3sc(CN(C)c4ncc(C(=O)NO)cn4)cc3n2)cc1` [Compound 154, 2-(((2-(4-(Diethylamino)phenyl)-4-morpholinothieno[3,2-d]pyrimidin-6-yl)methyl)(methyl)amino)-N-hydroxypyrimidine-5-carboxamide], the melting point is 192 to 196 °C. The compound also came in with an IC50 in series [1] of less than 100 nM.

`CN(Cc1cc2nc(-c3ccc(N4CCCC4)cc3)nc(N3CCOCC3)c2s1)c1ncc(C(=O)NO)cn1` [Compound 155, N-hydroxy-2-(methyl((4-morpholino-2-(4-(pyrrolidin-1-yl)phenyl)thieno[3,2-d]pyrimidin-6-yl)methyl)amino)pyrimidine-5-carboxamide] showed a melting point of 187 to 192 °C. The compound also gave an IC50 in series [1] of less than 100 nM.

`CN(Cc1cc2nc(-c3ccc(N)c(N)c3)nc(N3CCOCC3)c2s1)c1ncc(C(=O)NO)cn1` [Compound 156, 2-(((2-(3,4-diaminophenyl)-4-morpholinothieno[3,2-d]pyrimidin-6-yl)methyl)(methyl)amino)-N-hydroxypyrimidine-5-carboxamide] gave a melting point of 222 to 225 °C. The IC50 in series [1] is less than 100 nM.

`CN(Cc1cc2nc(-c3cccc4[nH]ncc34)nc(Nc3ccccc3)c2s1)c1ncc(C(=O)NO)cn1` [Compound 164, 2-(((2-(1H-indazol-4-yl)-4-(phenylamino)thieno[3,2-d]pyrimidin-6-yl)methyl)(methyl)amino)-N-hydroxypyrimidine-5-carboxamide] came in with a melting point of 232 to 235 °C. Further, in series [1], the half-maximal inhibitory concentration (IC50) was less than 100 nM.

In turn, `CN(Cc1cc2nc(-c3cccc4[nH]ncc34)nc(Nc3ccccn3)c2s1)c1ncc(C(=O)NO)cn1` [Compound 168, 2-(((2-(1H-indazol-4-yl)-4-(pyridin-2-ylamino)thieno[3,2-d]pyrimidin-6-yl)methyl)(methyl)amino)-N-hydroxypyrimidine-5-carboxamide] gave a melting point of 200 to 203 °C. Moreover, the IC50 in series [1] was less than 100 nM.

In turn, `CN(Cc1cc2nc(-c3cccc4[nH]ccc34)nc(N3CCOCC3)c2s1)c1ncc(C(=O)NO)cn1` [Compound 176, 2-(((2-(1H-indol-4-yl)-4-morpholinothieno[3,2-d]pyrimidin-6-yl)methyl)(methyl)amino)-N-hydroxypyrimidine-5-carboxamide] gave a melting point of 200 to 212 °C. This compound had an IC50 in series [1] of less than 100 nM.

`CN(Cc1cc2nc(-c3cccc4c3CCN4)nc(N3CCOCC3)c2s1)c1ncc(C(=O)NO)cn1` [Compound 177, N-hydroxy-2-(((2-(indolin-4-yl)-4-morpholinothieno[3,2-d]pyrimidin-6-yl)methyl)(methyl)amino)pyrimidine-5-carboxamide]: the melting point was in the range of 146 to 156 °C. In series [1], this compound came in with an IC50 of less than 100 nM.

`CN(Cc1cc2nc(-c3ccc4c(c3)NCCO4)nc(N3CCOCC3)c2s1)c1ncc(C(=O)NO)cn1` [Compound 182, 2-(((2-(3,4-dihydro-2H-benzo[b][1,4]oxazin-6-yl)-4-morpholinothieno[3,2-d]pyrimidin-6-yl)methyl)(methyl)amino)-N-hydroxypyrimidine-5-carboxamide] had a melting point of 170 to 183 °C. In addition, the 50% inhibitory concentration (IC50) in series [1] was less than 100 nM.

With `CN(Cc1cc2nc(-c3ccc4[nH]c(=O)[nH]c4c3)nc(N3CCOCC3)c2s1)c1ncc(C(=O)NO)cn1` [Compound 186, N-hydroxy-2-(methyl((4-morpholino-2-(2-oxo-2,3-dihydro-1H-benzo[d]imidazol-5-yl)thieno[3,2-d]pyrimidin-6-yl)methyl)amino)pyrimidine-5-carboxamide], the melting point is 272 to 275 °C. For the same compound, the half-inhibitory concentration (IC50) in series [1] is less than 100 nM.

In turn, `CN(Cc1cc2nc(-c3ccc4[nH]cnc4c3)nc(N3CCOCC3)c2s1)c1ncc(C(=O)NO)cn1` [Compound 187, 2-(((2-(1H-benzo[d]imidazol-5-yl)-4-morpholinothieno[3,2-d]pyrimidin-6-yl)methyl)(methyl)amino)-N-hydroxypyrimidine-5-carboxamide] had a melting point of 231 to 239 °C. Besides, the IC50 in series [1] was less than 100 nM.

Consider `CN(Cc1cc2nc(-c3ccc4c(c3)CC(=O)N4)nc(N3CCOCC3)c2s1)c1ncc(C(=O)NO)cn1` [Compound 194, N-hydroxy-2-(methyl((4-morpholino-2-(2-oxoindolin-5-yl)thieno[3,2-d]pyrimidin-6-yl)methyl)amino)pyrimidine-5-carboxamide], for which the melting point is 270 °C (dec.). Besides, the IC50 in series [1] is less than 100 nM.

`CN(Cc1cc2nc(-c3cn[nH]c3)nc(N3CCOCC3)c2s1)c1ncc(C(=O)NO)cn1` [Compound 196, N-hydroxy-2-(methyl((4-morpholino-2-(1H-pyrazol-4-yl)thieno[3,2-d]pyrimidin-6-yl)methyl)amino)pyrimidine-5-carboxamide] registered a melting point of 214 to 217 °C. In addition, the IC50 in series [1] is less than 100 nM.

`CN(Cc1cc2nc(-c3cc[nH]c3)nc(N3CCOCC3)c2s1)c1ncc(C(=O)NO)cn1` [Compound 197, N-hydroxy-2-(methyl((4-morpholino-2-(1H-pyrrol-3-yl)thieno[3,2-d]pyrimidin-6-yl)methyl)amino)pyrimidine-5-carboxamide] displayed a melting point of 175 to 189 °C. For the same compound, the IC50 in series [1] was less than 100 nM.

`Cc1nc2ccc(-c3nc(N4CCOCC4)c4sc(CN(C)c5ncc(C(=O)NO)cn5)cc4n3)cc2[nH]1` [Compound 199, N-hydroxy-2-(methyl((2-(2-methyl-3H-benzo[d]imidazol-5-yl)-4-morpholinothieno[3,2-d]pyrimidin-6-yl)methyl)amino)pyrimidine-5-carboxamide] gave a melting point of 230 to 233 °C. The compound also registered a 50% inhibitory concentration (IC50) in series [1] of less than 100 nM.

The compound `CN(Cc1cc2nc(-c3ccc(F)cc3)nc(N3CCOCC3)c2s1)c1ncc(C(=O)NO)cn1` [Compound 200, 2-(((2-(4-fluorophenyl)-4-morpholinothieno[3,2-d]pyrimidin-6-yl)methyl)(methyl)amino)-N-hydroxypyrimidine-5-carboxamide] registered a melting point of 168 to 170 °C. This compound also gave an IC50 in series [1] of less than 100 nM.

`Cc1ccc(-c2nc(N3CCOCC3)c3sc(CN(C)c4ncc(C(=O)NO)cn4)cc3n2)cc1` [Compound 201, N-hydroxy-2-(methyl((4-morpholino-2-p-tolylthieno[3,2-d]pyrimidin-6-yl)methyl)amino)pyrimidine-5-carboxamide]: the melting point was 170 to 172 °C. The same compound had an IC50 in series [1] of less than 100 nM.

Compound `CN(Cc1cc2nc(-c3ccc(C(F)(F)F)cc3)nc(N3CCOCC3)c2s1)c1ncc(C(=O)NO)cn1` [Compound 202, N-hydroxy-2-(methyl((4-morpholino-2-(4-(trifluoromethyl)phenyl)thieno[3,2-d]pyrimidin-6-yl)methyl)amino)pyrimidine-5-carboxamide] displayed a melting point of 222 to 223 °C. Besides, the IC50 in series [1] is less than 100 nM.

The compound `Nc1ccc(-c2nc(N3CCOCC3)c3sc(CNc4ncc(C(=O)NO)cn4)cc3n2)cc1` [Compound 211, 2-((2-(4-aminophenyl)-4-morpholinothieno[3,2-d]pyrimidin-6-yl)methylamino)-N-hydroxypyrimidine-5-carboxamide] returned a melting point of 217 to 223 °C. The IC50 in series [1] was less than 100 nM.

`Nc1ncc(-c2nc(N3CCOCC3)c3sc(NS(=O)(=O)c4ccc(/C=C/C(=O)NO)cc4)cc3n2)cn1` [Compound 217, (E)-3-(4-(N-(2-(2-aminopyrimidin-5-yl)-4-morpholinothieno[3,2-d]pyrimidin-6-yl)sulfamoyl)phenyl)-N-hydroxyacrylamide] showed a melting point greater than 300 °C. In series [1], this compound gave an IC50 of less than 100 nM.

As to `Nc1ncc(-c2nc(N3CCOCC3)c3sc(NS(=O)(=O)c4cccc(/C=C/C(=O)NO)c4)cc3n2)cn1` [Compound 218, (E)-3-(3-(N-(2-(2-aminopyrimidin-5-yl)-4-morpholinothieno[3,2-d]pyrimidin-6-yl)sulfamoyl)phenyl)-N-hydroxyacrylamide], the melting point is greater than 300 °C. In series [1], the IC50 was less than 100 nM.
